Series [1] is described as follows: Thermodynamic solubility of the compound in pH 6.8 solution. It is filed as physicochemical. Particulars: read-out: Therm_solubility.
Series [2] concerns the target T1, Mitogen-activated protein kinase kinase kinase 5 (Homo sapiens, UniProt Q99683).
T1 sequence (Q99683 whole entry): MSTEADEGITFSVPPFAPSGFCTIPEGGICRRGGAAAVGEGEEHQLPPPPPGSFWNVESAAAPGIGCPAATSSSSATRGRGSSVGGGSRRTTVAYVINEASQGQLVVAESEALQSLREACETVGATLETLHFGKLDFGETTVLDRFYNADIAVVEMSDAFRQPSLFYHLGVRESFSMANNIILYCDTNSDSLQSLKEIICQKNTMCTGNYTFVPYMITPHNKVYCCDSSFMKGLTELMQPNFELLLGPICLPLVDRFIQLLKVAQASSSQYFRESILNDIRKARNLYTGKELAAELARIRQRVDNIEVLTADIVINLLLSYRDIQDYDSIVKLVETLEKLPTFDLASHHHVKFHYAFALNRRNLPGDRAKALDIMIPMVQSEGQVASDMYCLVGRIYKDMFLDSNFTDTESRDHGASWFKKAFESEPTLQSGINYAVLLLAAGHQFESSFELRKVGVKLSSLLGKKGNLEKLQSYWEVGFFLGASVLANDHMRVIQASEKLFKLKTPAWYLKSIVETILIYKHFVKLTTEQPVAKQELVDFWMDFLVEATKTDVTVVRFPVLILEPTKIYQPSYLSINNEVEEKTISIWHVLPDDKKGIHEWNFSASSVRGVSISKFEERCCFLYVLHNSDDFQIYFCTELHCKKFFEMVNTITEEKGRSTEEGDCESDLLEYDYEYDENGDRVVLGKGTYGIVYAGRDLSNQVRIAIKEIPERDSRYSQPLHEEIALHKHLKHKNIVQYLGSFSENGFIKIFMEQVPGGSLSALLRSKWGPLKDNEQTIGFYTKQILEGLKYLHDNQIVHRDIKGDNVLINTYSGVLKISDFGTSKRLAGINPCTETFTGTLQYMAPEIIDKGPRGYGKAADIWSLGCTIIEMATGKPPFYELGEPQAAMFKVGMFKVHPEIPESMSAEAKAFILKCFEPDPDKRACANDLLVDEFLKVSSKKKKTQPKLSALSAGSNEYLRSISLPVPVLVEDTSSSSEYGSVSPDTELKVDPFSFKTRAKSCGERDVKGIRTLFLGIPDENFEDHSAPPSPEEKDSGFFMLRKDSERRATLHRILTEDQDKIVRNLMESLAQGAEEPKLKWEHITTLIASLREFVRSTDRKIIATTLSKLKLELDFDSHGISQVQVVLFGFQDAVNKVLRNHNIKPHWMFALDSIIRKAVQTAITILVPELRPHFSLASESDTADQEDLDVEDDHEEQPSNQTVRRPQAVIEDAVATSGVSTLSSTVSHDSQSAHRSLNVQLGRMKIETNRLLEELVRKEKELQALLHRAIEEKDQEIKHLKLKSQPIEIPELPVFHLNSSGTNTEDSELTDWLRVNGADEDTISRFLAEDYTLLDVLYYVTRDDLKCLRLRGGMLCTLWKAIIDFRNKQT
Put plainly: Inhibition of ASK1 (unknown origin) using biotin-MBP as substrate after 20 mins by TR-FRET assay.

In a further series the target is CYP3A4 (Homo sapiens, UniProt P08684). Put plainly: Inhibition of CYP3A4 (unknown origin) at 10 uM relative to control. In kind it is ADME.
The target of series [3] is Cyclin-dependent kinase 2 (Homo sapiens, UniProt P24941). The series is described as follows: Inhibition of CDK2 (unknown origin).
The target in series [4] is Receptor tyrosine-protein kinase erbB-4 (Homo sapiens, UniProt Q15303). Put plainly: Inhibition of recombinant human N-terminal GST-tagged ERBB4 cytoplasmic domain (708 to 993 residues) expressed in baculovirus expression system.
The target of series [5] is T2, Tyrosine-protein kinase Mer (Homo sapiens, UniProt Q12866).
T2 sequence (Q12866 whole entry): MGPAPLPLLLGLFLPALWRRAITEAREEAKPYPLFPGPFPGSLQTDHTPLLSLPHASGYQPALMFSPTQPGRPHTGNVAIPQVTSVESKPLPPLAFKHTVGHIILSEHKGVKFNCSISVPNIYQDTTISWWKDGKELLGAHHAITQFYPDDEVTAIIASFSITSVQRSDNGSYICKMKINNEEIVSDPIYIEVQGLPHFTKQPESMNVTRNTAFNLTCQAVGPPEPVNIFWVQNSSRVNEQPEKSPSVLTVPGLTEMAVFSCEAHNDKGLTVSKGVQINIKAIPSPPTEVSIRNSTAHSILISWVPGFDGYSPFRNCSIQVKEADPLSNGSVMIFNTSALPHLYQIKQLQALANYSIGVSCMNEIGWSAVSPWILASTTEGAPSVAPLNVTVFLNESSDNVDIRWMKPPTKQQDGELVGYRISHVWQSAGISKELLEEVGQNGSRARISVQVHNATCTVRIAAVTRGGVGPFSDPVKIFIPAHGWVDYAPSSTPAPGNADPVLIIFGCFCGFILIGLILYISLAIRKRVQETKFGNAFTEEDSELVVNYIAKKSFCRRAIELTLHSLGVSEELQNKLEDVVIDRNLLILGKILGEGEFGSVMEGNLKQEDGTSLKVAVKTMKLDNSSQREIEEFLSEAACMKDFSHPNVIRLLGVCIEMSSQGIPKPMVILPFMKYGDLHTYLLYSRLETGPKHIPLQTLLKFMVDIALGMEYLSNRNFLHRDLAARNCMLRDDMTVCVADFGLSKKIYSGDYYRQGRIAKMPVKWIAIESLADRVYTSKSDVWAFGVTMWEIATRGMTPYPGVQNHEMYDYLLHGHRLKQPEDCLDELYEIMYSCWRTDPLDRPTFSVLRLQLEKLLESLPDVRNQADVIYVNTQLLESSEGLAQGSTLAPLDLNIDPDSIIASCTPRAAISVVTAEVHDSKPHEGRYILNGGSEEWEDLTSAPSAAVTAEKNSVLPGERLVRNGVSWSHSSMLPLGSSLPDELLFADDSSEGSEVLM
The series is described as follows: Inhibition of recombinant human GST-tagged MER cytoplasmic domain expressed in baculovirus expression system.

Series [6] has as its target 5'-AMP-activated protein kinase catalytic subunit alpha-1 (Homo sapiens, UniProt Q13131). Put plainly: Inhibition of PRKAA1 (unknown origin).
The target of series [7] is Rho-associated protein kinase 1 (Homo sapiens, UniProt Q13464). The series is described as follows: Inhibition of recombinant human GST-tagged ROCK1 catalytic domain expressed in baculovirus expression system.

SMILES strings stand for the structures. In brackets after ≈: the same amount, converted by molar mass.

Chain of Rho-associated protein kinase 1 (Q13464 whole entry, the tested form may be a part): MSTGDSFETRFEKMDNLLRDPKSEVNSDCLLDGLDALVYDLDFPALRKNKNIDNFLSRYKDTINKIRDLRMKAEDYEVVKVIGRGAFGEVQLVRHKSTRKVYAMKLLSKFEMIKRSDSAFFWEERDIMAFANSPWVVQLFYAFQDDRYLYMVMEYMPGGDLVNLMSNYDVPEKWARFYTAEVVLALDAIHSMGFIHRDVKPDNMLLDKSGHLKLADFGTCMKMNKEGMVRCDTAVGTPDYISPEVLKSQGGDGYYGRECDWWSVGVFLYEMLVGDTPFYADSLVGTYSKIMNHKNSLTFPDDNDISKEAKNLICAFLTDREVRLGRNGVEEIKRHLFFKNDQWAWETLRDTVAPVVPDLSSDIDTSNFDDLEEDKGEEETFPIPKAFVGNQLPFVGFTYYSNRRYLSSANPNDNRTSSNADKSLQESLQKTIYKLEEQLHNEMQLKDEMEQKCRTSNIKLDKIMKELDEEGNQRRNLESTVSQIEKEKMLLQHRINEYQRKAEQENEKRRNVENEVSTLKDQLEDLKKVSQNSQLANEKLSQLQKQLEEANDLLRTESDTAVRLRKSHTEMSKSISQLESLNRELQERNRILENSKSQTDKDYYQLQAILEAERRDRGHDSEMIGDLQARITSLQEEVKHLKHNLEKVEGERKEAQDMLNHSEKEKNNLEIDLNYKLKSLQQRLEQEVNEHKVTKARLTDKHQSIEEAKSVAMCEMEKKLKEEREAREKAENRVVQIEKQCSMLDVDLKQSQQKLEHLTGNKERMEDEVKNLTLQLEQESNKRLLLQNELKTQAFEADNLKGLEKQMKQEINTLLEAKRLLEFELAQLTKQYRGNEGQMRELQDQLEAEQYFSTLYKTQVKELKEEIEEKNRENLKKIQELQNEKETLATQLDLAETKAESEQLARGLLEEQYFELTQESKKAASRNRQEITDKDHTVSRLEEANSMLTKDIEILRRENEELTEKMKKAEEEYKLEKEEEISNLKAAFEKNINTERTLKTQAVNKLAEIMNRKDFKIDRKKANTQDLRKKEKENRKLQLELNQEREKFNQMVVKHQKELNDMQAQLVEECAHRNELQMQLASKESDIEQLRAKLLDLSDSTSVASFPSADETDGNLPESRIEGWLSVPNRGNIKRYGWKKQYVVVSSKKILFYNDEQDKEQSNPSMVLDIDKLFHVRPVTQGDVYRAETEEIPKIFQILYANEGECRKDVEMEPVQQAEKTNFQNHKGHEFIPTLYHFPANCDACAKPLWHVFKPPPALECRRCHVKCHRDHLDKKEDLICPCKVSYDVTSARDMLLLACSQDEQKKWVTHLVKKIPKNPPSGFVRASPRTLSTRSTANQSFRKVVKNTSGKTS
Chain of 5'-AMP-activated protein kinase catalytic subunit alpha-1 (Q13131 whole entry, the tested form may be a part): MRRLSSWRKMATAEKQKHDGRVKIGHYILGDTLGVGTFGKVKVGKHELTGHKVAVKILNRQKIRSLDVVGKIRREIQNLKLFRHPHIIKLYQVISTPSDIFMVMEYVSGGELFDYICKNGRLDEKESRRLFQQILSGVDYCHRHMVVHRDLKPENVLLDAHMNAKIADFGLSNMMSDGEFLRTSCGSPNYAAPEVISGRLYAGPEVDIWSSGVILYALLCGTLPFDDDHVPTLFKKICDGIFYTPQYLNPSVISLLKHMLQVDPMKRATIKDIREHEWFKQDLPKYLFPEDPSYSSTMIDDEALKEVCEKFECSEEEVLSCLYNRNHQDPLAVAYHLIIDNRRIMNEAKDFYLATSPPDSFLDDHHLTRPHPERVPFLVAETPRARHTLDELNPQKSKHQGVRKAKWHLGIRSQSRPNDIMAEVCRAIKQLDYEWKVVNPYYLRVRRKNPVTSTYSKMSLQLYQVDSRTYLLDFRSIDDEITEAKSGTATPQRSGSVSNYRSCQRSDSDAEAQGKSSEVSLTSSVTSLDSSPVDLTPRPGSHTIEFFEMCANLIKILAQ
Chain of CYP3A4 (P08684 whole entry): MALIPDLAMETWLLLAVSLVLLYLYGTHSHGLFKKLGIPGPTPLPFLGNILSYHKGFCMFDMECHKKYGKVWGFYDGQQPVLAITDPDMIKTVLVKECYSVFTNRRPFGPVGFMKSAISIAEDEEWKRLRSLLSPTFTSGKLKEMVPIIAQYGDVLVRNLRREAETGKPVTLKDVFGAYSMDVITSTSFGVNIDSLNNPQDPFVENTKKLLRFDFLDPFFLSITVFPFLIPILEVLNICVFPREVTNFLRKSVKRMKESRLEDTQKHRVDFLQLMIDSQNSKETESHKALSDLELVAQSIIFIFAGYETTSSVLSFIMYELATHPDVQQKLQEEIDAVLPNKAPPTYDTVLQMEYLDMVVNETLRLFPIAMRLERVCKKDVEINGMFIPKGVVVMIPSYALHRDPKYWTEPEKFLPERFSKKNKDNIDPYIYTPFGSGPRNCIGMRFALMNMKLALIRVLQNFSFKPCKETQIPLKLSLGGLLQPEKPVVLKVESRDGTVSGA
Chain of Receptor tyrosine-protein kinase erbB-4 (Q15303 whole entry, the tested form may be a part): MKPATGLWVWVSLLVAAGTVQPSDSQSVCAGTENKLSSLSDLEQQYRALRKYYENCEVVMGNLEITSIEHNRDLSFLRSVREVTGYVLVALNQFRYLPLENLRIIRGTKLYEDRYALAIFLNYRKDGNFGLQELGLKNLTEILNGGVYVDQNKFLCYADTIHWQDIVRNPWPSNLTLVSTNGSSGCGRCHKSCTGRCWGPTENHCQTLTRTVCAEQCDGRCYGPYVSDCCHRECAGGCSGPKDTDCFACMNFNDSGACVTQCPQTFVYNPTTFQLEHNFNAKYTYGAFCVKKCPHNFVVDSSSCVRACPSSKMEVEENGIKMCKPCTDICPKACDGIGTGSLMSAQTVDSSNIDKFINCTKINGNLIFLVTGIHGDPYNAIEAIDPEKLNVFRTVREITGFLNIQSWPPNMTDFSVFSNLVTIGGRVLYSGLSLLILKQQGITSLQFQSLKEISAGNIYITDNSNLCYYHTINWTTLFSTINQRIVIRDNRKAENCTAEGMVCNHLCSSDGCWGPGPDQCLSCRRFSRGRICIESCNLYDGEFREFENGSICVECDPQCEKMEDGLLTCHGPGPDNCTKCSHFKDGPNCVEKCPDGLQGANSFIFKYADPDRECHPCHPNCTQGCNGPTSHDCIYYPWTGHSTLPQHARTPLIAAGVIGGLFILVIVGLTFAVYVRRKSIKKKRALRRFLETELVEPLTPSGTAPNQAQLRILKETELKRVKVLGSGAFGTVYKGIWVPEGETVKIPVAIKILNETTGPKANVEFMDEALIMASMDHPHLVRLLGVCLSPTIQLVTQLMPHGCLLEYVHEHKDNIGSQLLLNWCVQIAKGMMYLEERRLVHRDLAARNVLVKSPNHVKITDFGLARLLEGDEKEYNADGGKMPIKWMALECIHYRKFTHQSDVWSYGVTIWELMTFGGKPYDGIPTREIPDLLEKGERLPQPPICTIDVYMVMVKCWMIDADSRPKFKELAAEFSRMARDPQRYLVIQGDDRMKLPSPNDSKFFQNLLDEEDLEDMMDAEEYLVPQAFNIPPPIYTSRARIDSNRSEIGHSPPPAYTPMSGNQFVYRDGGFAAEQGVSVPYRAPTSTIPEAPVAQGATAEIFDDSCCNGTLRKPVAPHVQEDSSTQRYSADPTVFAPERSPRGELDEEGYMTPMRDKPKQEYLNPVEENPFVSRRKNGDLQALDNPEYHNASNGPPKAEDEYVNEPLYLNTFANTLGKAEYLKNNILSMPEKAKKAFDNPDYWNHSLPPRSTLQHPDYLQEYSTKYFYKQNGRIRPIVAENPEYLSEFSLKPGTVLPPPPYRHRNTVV

As for `COCCn1cc(NC(=O)c2csc(-c3nncn3C(C)C)n2)cn1`, the solubility thermodynamic in series [1] was found to be 208 µM (≈ 75.2 µg/mL). In addition, the IC50 in series [2] is 60 nM; in series [3], 1000 nM; in series [4] it was over 20000 nM; in series [5], 7590 nM; in series [6], 794 nM; in series [7] it was 5370 nM. Also, the inhibition at 10 µM on CYP3A4 was determined as 30%.

In general, IC50 refers to the concentration at which inhibition is half-maximal. A word on the inhibition: it is the relative decrease from the control value, in per cent.

For the origin of these results see ChEMBL document CHEMBL4007491, “Structure-based drug design of novel ASK1 inhibitors using an integrated lead optimization strategy” (Bioorg Med Chem Lett, 2017).
